Data published in ChEMBL document CHEMBL1201862, “PubChem BioAssay data set” (2004).
Active and inactive are the calls of the source.

How the values were obtained:
[1] = P. falciparum Dd2 growth inhibitors, dose response, SYBR Green, cherry-picked samples (AID 1159567); assay type: functional, cell-based
[2] = target: T1, Cytochrome P450 2C9 (Homo sapiens, UniProt P11712)
[3] = target: Eukaryotic translation initiation factor 4E (Mus musculus, UniProt P63073); test: eIF4E–eIF4G protein interaction inhibitors, dose response, biochemical, TR-FRET (AID 855); assay type: functional;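 further: potency for disrupting eIF4E binding to eIF4GI seen as loss of FRET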
[4] = target: Prothrombin (Homo sapiens, UniProt P00734); test: Thrombin 1536 HTS Dose Response Confirmation. [Related pubchem assays: 1046 (Thrombin 1536 HTS; hits were confirmed in this assay)]; assay type: functional
[5] = target: T1, Cytochrome P450 2C9; remark: listed apart in the source
[6] = growth suppression of beta-catenin-knockout colon cells, dose response, cell-based, HCT116, human colon tumor (AID 1045); assay type: functional;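 further: HCT116 colon tumor cells with beta catenin knocked out; cells exposed to compound for 60 hours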
[7] = tested on: Streptococcus; test: Group A Streptococcus viability loss, dose response, counter-screen for streptokinase expression inhibitor project, luminescence, BacTiterGlo (AID 1915); assay type: functional, organism-based;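 further: potency for reduction of bacterial viability or growth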
[8] = tested on: Streptococcus sp. 'group A'; test: growth inhibition of control SK(-) GAS strain, dose response, counter-screen for streptokinase expression inhibitor project, luminescence, kanamycin, BacTiterGlo, confirmation (AID 1900); assay type: functional, organism-based
[9] = cytotoxicity toward NIH3T3 fibroblasts, dose response, counter-screen, cell-based, ATP luminescence, mouse fibroblasts (AID 2010); assay type: functional;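 further: cells exposed to compound for about 90 hours before reading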
[10] = inhibitors of intracellular T. cruzi replication, confirmation, NIH3T3 host cells, beta-gal luminescence (AID 2044); assay type: functional, cell-based;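 further: intracellular parasites grown in NIH/3T3 mouse fibroblasts as host cells; luminescent beta-galactosidase reporter signal from transgenic T. cruzi replicating inside host cells; inhibitors lower the luminescence signal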
[11] = target: T2, RNA-binding protein pos-1 (Caenorhabditis elegans, UniProt G5EF15); test: inhibitors of POS-1/mex-3 RNA binding, dose response, biochemical, fluorescence polarization (AID 1964);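 further: purified POS-1 fused to maltose binding protein made in E. coli; potency of compounds blocking POS-1 binding to fluorescent RNA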
T2 sequence (G5EF15 whole entry): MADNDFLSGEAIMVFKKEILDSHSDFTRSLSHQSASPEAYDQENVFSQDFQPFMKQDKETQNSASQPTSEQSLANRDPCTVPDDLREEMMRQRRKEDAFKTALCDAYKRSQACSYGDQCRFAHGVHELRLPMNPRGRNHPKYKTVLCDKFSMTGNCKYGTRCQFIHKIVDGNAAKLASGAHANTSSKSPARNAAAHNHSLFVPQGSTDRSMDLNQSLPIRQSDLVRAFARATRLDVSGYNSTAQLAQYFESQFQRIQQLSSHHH

[12] = growth suppression of PTEN-null colon cells, dose response, cell-based, HCT116 PTEN knockout (AID 1047); assay type: functional;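 further: HCT116 colon tumor cells with PTEN knocked out; cells exposed to compound for 60 hours before readout; potency for loss of cell viability measured by luminescence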
[13] = target: T3, Zinc finger protein mex-5 (Caenorhabditis elegans, UniProt Q9XUB2); test: MEX-5/TCR-2 RNA interaction inhibitors, dose response, biochemical, C. elegans, fluorescence polarization (AID 1960)
T3 sequence (Q9XUB2 whole entry): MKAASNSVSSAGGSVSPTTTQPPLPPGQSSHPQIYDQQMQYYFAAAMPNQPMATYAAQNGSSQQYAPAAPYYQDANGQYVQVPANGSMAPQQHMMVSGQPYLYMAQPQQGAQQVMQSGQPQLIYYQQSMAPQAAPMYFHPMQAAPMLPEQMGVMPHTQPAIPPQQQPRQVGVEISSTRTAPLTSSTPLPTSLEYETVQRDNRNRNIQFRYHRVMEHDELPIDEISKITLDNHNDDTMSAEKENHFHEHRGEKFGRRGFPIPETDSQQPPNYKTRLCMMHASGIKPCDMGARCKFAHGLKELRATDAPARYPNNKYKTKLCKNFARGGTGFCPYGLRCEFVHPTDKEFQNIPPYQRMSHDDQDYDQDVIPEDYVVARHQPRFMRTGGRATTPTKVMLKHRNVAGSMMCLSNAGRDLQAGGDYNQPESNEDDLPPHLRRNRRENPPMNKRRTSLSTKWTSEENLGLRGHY

[14] = A375 melanoma cell viability loss, dose response, counter-screen for MITF inhibitor project, CellTiter-Glo luminescence, dry powder, set 4 (AID 624364); assay type: functional, cell-based; conditions: A-375;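 further: A375 melanoma cells are MITF independent so this is a counter screen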
[15] = target: T4, Tyrosine-protein phosphatase non-receptor type 7 (Homo sapiens, UniProt P35236); test: inhibitors of human HePTP phosphatase, […], biochemical, absorbance, leukemia target (AID 521); assay type: functional
T4 sequence (P35236 whole entry): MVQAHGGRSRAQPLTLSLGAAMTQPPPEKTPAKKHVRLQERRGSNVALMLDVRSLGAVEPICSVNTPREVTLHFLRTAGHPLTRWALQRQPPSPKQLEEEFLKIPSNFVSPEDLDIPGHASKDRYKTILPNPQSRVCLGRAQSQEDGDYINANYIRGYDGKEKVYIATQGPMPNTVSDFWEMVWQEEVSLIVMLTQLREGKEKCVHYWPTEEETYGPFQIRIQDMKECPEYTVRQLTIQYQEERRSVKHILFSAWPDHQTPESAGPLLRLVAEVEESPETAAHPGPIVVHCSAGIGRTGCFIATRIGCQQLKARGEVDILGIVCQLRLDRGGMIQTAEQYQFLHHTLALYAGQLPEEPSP

[16] = target: T5, Aminopeptidase N (Plasmodium falciparum FcB1/Columbia, UniProt O96935); test: P. falciparum M1AAP inhibitors, biochemical, fluorogenic H-Leu-NHMec substrate, 1536-well (AID 1445); set-up: species or system Plasmodium falciparum 3D7, 3D7
T5 sequence (O96935 whole entry): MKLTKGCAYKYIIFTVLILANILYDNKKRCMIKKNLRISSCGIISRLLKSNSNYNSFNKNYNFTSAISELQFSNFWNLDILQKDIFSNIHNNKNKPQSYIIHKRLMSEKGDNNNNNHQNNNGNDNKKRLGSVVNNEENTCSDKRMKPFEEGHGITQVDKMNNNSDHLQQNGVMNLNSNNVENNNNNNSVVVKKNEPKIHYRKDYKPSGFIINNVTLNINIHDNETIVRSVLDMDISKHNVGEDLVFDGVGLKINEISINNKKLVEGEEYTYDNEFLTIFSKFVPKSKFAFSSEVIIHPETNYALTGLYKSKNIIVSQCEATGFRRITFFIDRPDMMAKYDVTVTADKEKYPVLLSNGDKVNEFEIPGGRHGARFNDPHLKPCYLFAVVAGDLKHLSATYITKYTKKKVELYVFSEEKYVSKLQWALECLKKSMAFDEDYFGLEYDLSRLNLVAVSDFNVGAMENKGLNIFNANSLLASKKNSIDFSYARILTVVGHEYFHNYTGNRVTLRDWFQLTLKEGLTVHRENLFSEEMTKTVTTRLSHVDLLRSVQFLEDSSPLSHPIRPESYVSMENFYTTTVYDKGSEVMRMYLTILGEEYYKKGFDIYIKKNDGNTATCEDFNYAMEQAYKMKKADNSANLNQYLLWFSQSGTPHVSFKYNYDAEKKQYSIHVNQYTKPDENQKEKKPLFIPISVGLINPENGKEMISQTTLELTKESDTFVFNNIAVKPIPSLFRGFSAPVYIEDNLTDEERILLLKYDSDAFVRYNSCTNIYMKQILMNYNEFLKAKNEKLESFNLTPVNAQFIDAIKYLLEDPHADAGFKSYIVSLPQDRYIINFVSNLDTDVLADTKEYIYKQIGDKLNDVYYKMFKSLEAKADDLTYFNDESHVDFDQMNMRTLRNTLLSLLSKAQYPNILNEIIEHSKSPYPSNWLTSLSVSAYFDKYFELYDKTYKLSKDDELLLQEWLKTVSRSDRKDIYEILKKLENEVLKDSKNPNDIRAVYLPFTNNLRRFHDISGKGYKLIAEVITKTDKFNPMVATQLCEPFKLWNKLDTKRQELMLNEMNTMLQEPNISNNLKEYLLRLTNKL

[17] = target: T6, fMet-Leu-Phe receptor (Homo sapiens, UniProt P21462); test: FPR ligands, dose response (AID 519); assay type: functional
T6 sequence (P21462 whole entry): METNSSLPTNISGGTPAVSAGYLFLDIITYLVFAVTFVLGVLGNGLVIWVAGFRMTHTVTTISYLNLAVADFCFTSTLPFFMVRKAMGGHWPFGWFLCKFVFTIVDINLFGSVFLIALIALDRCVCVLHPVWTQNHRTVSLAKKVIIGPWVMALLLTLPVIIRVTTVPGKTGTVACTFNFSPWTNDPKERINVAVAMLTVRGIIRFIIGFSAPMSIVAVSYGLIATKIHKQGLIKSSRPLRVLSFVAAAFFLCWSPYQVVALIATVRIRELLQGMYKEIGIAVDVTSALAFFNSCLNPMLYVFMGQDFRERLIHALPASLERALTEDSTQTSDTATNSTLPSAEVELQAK

[18] = target: Large T antigen (Simian virus 40, UniProt P03070); assay type: functional, Betapolyomavirus macacae;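 further: Confirmatory-stage PubChem screen for compounds that inhibit SV40 T antigen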
[19] = cells; assay type: functional
[20] = target: Cytochrome P450 2C19 (Homo sapiens, UniProt P33261); test: Cytochrome panel assay with activity outcomes. Panel member name: p450-cyp2c19 Compounds with AC50 equal or less than 10 uM are considered active; assay type: functional
[21] = target: T7, Cytochrome P450 3A4 (Homo sapiens, UniProt P08684);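 further: CYP3A4 tested as one member of a cytochrome P450 panel screen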
[22] = target: T7, Cytochrome P450 3A4; remark: listed apart in the source
[23] = tested on: INS1; test: beta cell apoptosis inhibitors, cytokine rescue, dose response, luminescence, retest (AID 449756); assay type: functional, cell-based; conditions: Rattus norvegicus;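 further: cell death triggered by IL-1 beta plus TNF-alpha plus IFN-gamma mixture; protective hits raise ATP signal compared with cytokine alone wells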
[24] = insulin promoter down-regulators in MIN6 cells, imaging, high-content screening, mouse beta cells (AID 1628); assay type: functional
[25] = cytotoxicity in MIN6 insulinoma cells, dose response, cytotoxicity control, cell-based, mouse insulinoma (AID 2122); assay type: functional;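 further: confirmatory high-throughput counterscreen run to flag cytotoxic compounds; mouse MIN-6 beta cells carrying an insulin promoter eGFP reporter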
[26] = target: T8, Microphthalmia-associated transcription factor (Homo sapiens, UniProt O75030); test: TRPM1 promoter luciferase signal decrease, dose response, MITF inhibitor project, cell-based, SK-MEL-5, cherry-picked, set 3 (AID 493073); assay type: functional
T8 sequence (O75030 whole entry): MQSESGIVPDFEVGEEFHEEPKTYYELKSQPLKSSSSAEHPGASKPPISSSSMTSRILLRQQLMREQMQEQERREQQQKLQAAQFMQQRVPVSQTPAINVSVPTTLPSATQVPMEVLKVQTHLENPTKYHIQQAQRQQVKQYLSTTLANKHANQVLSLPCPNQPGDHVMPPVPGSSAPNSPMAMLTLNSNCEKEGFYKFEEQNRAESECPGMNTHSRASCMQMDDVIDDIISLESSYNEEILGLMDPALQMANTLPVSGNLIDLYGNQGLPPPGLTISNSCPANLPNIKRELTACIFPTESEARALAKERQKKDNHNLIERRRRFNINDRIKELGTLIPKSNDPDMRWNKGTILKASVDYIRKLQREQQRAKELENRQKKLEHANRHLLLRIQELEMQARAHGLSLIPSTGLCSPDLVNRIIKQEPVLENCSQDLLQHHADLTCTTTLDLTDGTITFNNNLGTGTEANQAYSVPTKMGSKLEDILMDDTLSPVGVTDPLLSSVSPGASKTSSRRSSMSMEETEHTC

[27] = target: Cytochrome P450 2D6 (Homo sapiens, UniProt P10635);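 further: CYP2D6 member of a cytochrome P450 panel assay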
Sequence of Cytochrome P450 2D6 (P10635 whole entry): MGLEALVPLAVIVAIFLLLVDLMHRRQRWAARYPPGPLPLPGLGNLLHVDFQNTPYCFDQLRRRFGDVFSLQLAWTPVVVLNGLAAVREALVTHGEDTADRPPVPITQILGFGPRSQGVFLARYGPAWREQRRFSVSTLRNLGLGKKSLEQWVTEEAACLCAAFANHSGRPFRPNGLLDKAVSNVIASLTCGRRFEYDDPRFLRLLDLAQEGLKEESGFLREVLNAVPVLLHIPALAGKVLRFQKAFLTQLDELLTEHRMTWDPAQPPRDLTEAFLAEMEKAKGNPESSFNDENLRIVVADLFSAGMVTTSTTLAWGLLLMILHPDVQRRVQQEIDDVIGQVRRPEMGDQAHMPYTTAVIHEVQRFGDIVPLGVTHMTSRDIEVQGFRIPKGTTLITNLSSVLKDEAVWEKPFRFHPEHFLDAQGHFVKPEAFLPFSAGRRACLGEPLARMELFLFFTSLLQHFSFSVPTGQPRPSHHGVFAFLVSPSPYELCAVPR

T7 sequence (P08684 whole entry): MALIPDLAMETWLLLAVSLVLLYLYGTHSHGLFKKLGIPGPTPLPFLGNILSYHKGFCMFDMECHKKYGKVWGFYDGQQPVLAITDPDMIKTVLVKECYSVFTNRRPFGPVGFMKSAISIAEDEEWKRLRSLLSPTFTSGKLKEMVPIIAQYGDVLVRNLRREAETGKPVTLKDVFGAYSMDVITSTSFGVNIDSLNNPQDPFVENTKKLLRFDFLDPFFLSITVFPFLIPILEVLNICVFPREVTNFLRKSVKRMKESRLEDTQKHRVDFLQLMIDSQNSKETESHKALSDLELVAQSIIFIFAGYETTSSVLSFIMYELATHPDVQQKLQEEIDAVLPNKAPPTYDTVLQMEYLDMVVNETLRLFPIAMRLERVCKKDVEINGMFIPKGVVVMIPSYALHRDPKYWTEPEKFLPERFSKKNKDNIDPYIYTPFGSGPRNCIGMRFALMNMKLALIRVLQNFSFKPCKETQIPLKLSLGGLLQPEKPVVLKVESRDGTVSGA
T1 sequence (P11712 whole entry): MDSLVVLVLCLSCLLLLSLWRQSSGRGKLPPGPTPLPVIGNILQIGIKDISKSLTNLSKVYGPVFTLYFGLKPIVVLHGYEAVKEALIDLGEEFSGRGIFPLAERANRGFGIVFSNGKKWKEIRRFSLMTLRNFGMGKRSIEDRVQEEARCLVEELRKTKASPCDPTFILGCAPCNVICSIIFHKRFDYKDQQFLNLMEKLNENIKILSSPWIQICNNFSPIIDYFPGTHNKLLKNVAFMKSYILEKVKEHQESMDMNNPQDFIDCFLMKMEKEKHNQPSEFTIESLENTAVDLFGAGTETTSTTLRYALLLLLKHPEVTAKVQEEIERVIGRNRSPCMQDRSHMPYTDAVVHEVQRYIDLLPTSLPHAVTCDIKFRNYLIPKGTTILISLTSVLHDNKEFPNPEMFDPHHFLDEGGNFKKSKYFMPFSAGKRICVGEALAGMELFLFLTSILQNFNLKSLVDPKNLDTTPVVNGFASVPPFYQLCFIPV
Sequence of Eukaryotic translation initiation factor 4E (P63073 whole entry): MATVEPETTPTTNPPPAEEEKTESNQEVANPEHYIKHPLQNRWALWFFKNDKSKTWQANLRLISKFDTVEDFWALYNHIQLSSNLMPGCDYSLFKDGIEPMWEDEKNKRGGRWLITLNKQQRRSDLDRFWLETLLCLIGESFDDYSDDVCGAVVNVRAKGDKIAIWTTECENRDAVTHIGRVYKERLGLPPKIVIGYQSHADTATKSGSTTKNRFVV
Sequence of Cytochrome P450 2C19 (P33261 whole entry): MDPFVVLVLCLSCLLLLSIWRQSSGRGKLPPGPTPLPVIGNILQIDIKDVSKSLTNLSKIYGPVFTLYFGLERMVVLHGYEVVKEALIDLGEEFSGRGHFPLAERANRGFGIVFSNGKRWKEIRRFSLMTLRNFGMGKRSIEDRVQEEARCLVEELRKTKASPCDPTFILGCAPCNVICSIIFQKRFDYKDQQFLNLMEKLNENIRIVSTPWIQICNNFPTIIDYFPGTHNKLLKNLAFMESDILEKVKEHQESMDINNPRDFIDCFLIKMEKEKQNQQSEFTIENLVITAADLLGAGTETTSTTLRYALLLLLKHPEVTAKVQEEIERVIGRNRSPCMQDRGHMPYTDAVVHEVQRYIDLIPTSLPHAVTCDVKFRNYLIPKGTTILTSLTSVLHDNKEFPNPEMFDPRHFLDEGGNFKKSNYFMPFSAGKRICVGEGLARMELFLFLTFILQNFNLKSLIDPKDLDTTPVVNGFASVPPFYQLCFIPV
Sequence of Large T antigen (P03070 whole entry): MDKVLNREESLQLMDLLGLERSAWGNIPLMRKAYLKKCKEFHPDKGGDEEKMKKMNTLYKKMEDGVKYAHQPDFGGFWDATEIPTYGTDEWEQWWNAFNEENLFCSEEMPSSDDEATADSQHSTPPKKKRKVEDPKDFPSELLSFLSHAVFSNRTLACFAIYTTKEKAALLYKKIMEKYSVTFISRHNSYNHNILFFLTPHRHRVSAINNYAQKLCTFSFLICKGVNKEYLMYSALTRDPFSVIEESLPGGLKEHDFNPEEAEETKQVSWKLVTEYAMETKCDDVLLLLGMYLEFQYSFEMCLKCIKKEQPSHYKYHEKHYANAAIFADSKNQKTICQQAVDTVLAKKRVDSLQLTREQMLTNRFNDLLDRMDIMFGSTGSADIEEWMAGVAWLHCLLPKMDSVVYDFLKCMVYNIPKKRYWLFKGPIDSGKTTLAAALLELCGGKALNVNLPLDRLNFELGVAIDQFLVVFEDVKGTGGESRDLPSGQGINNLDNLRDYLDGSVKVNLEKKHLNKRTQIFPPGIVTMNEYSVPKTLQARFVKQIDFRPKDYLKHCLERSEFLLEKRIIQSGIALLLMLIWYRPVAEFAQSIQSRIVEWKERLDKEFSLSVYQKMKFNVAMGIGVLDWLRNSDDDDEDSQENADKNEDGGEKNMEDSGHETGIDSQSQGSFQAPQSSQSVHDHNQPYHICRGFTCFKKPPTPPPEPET

O=C(C[C@H]1CC[C@@H]2[C@H](COC[C@@H](O)CN2C(=O)Nc2ccc3c(c2)OCO3)O1)N1CCN(c2ccccc2)CC1
AC50 [1]: 22.8 µM (active)

COc1ccc(/C=N/n2cnc3c4cc(Br)ccc4nc-3c2O)cc1CN1CCOCC1
AC50 [2]: 3.55 µM (inconclusive) | IC50 [3]: > 64 µM (inactive)

CCN(CC)CCCN(Cc1cc2cc3c(cc2[nH]c1=O)OCO3)C(=S)Nc1ccccc1OC
IC50 [4]: > 50 µM (not active)

COc1ccccc1CN(CC(=O)NCc1ccco1)C(=O)CNS(=O)(=O)c1ccc(C)cc1
IC50 [4]: 7.63 µM (active)

CC(O)(CS(=O)(=O)c1cccc(C(F)(F)F)c1)C(=O)Nc1cccc(C(F)(F)F)c1 (centres undefined)
AC50 [5]: inconclusive

COc1ccc(-n2nc(C(=O)c3cccs3)cc(-c3nc4ccccc4[nH]3)c2=N)cc1
EC50 [6]: 11.2 µM (active) | EC50 [7]: 10 µM (active) | EC50 [8]: 3.26 µM (active) | EC50 [9]: > 60 µM (not active) | IC50 [4]: > 50 µM (not active) | EC50 [10]: 0.531 µM (active) | EC50 [11]: 53.8 µM (active) | EC50 [12]: 14.6 µM (active) | EC50 [13]: 66.3 µM (active)

O=C1C(NS(=O)(=O)c2ccc(Br)cc2)=C(N2CCN(c3ccccc3)CC2)C(=O)c2ccccc21
AC50 [14]: > 70 µM (inactive)

CCC(C)[C@H](NC(=O)NCC1CCCO1)C(=O)OC (some centres undefined)
IC50 [15]: > 100 µM (not active)

O=C(NC1CCCC1)c1sc(=S)n2c1[nH]c(=O)c1ccccc12
IC50 [16]: 35 µM (active) | Ki [17]: 14.7 µM (active) | IC50 [18]: > 100 µM (active)

Cc1ccc(-n2c(Cc3cccn3C)nnc2SCC(=O)NCc2ccco2)cc1
IC50 [15]: > 100 µM (not active)

COc1ccc2c3ncn(CC4CCCO4)c(O)c-3nc2c1 (centres undefined)
IC50 [15]: > 100 µM (not active)

CCOc1cccc2cc(C(=O)Nc3nccs3)c(=O)oc12
IC50 [15]: > 100 µM (not active) | IC50 [19]: 1.31 µM (active)

CC(C)(C)c1ccc(OCC(=O)NNC(=O)CCc2ccccc2)cc1
AC50 [20]: 14.1 µM (inconclusive) | AC50 [5]: inconclusive | AC50 [21]: inconclusive

COC(=O)n1c(=S)oc2cc(Cl)ccc21
IC50 [3]: > 64 µM (inactive)

CCC1Oc2ccccc2N(CC(=O)NCCCN2CCCCC2C)C1=O (centres undefined)
AC50 [20]: 2.24 µM (inconclusive) | AC50 [5]: inconclusive | AC50 [22]: 20 µM (inconclusive)

CCCCOC(=O)Sc1nc2ccccc2o1
IC50 [4]: 3.11 µM (active)

O=[N+]([O-])c1cccc2c(N3CCCC3)ccnc12
AC50 [23]: 3.17 µM (active) | IC50 [24]: 2.41 µM (active) | IC50 [25]: 1.18 µM (active) | AC50 [26]: 2.47 µM (active)

CCCC(=O)Nc1ccc(C(=O)Nc2cc(C(F)(F)F)ccc2Cl)cc1
AC50 [5]: inconclusive | AC50 [22]: 15.8 µM (inconclusive) | AC50 [27]: 8.91 µM (inconclusive)
